Laboratory results: patent publication US10576102B2, “KOC1-derived peptide and vaccine including same” (ONCOTHERAPY SCIENCE, INC., priority 2014, dated 2020)
Entries after “also recorded” stand apart in the source; their conditions may differ.

Tests used:
peptide-pulsed C1R-A33 [1] = assay: In vitro CTL induction, IFN-gamma ELISPOT assay (HLA-A*3303); assay type: cell-based, human; settings: CTLs induced with peptide-pulsed DCs from HLA-A*3303-positive volunteers; day 21; vs peptide-pulsed C1R-A33, compared with unpulsed control
Description: (§1) C1R (C1R-A33) that stably expresses HLA-A*3303 was used as a stimulator cell. A cDNA encoding the open-reading frame of HLA-A*3303 was amplified by PCR and cloned into an expression vector. C1R cells were transfected with the expression vector, and then selected using G418 (Invitrogen) for two weeks. The G418-selected cells were seeded into wells containing G418-added culture medium in a 96-well plate, and further cultured for 30 days. The exogenous HLA-A*3303 expression in C1R cells was verified by flow cytometric analysis.
(§2) Monocyte-derived dendritic cells (DCs) were used as the antigen-presenting cell to induce a cytotoxic T lymphocyte (CTL) response against peptides presented on human leukocyte antigens (HLAs). As described in the other sections, DCs were generated in vitro (Nakahara S et al., Cancer Res 2003, 63(14): 4112-8). Specifically, peripheral-blood mononuclear cells isolated from healthy volunteers (HLA-A*3303-positive) with the Ficoll-Paque plus solution (Pharmacia) were separated by attaching to plastic tissue culture dishes (Becton Dickinson) and concentrated as a monocyte fraction. The monocyte-concentrated population was cultured in the presence of 1000 IU/ml granulocyte macrophage colony-stimulating factor (R&D System) and 1000 IU/ml interleukin(IL)-4 (R&D System) in an AIM-V medium (Invitrogen) containing 2% heat-inactivated autologous serum (AS). After seven days of culturing, the cytokine-induced DCs were pulsed with 20 micro-g/ml each of the synthesized peptides in an AIM-V medium at 37 degrees C. for three hours in the presence of 3 micro-g/ml beta 2-microglobulin. The generated cells appeared to express on their cell surface DC-associated molecules such as CD80, CD83, CD86 and HLA class II (data not shown). Next, these peptide-pulsed DCs were inactivated by X-ray irradiation (20 Gy), and mixed in a 1:20 ratio with autologous CD8^+ T cells obtained by positive selection using the CD8 Positive Isolation Kit (Dynal). These culture products were seeded in a 48-well plate (Corning). Each well was made to contain 1.5×10^4 peptide-pulsed DCs, 3×10^5 CD8^+ T cells and 10 ng/ml IL-7 (R&D System) in 0.5 ml of the AIM-V/2% AS medium. Three days later, these culture products were added with a final concentration of 20 IU/ml IL-2 (CHIRON). On day 7 and day 14, T cells were further stimulated with peptide-pulsed autologous DCs. The DCs were prepared every time by the same method as above. On day 21, after the third peptide stimulation, CTLs were examined against the peptide-pulsed C1R-A33 cell by a human interferon (IFN)-gamma enzyme-linked immunospot (ELISPOT) assay (Tanaka H et al., Br J Cancer 2001, 84(1): 94-9; Umano Y et. al., Br J Cancer 2001, 84(8): 1052-7; Uchida N et al., Clin Cancer Res 2004, 10(24): 8577-86; Suda T et al., Cancer Sci 2006, 97(5): 411-9; Watanabe T et al., Cancer Sci 2005, 96(8): 498-506).
(§3) Specifically, peptide-pulsed C1R-A33 (1×10^4 cells/well) was prepared as the stimulator cell. The induced CTLs, i.e., CTL lines and CTL clones, were used as the responder cell. The IFN-gamma ELISPOT assay and IFN-gamma ELISA were performed according to the manufacturer's manual.

peptide-pulsed C1R-A33 [2] = assay: IFN-gamma ELISA of CTL lines and CTL clones (HLA-A*3303); assay type: cell-based, human; settings: for IFN-gamma production of CTL clones, ELISA: CTL clones by limiting dilution, peptide-pulsed C1R-A33; for IFN-gamma production of CTL lines, ELISA: target cells pulsed with the peptide vs not pulsed, C1R-A33
Description: CTLs were propagated in culture using methods similar to those disclosed by Riddell et al. (Walter E A et al., N Engl J Med 1995, 333(16): 1038-44; Riddell S R et al., Nat Med 1996, 2(2): 216-23). The CTLs were co-cultured in a total of 25 ml AIM-V medium containing 5% AS (AIM-V/5% AS) and 40 ng/ml anti-CD3 antibody with two types of Mitomycin C-treated human B lymphoblastoid cell lines at 5×10^6 cells/flask. One day after beginning of the culturing, 120 IU/ml IL-2 was added to the culture. On days 5, 8 and 11, a fresh AIM-V/5% AS medium containing 30 IU/ml IL-2 was added to the culture (Tanaka H et al., Br J Cancer 2001, 84(1): 94-9; Umano Y et al., Br J Cancer 2001, 84(8): 1052-7; Uchida N et al., Clin Cancer Res 2004, 10(24): 8577-86; Suda T et al., Cancer Sci 2006, 97(5): 411-9; Watanabe T et al., Cancer Sci 2005, 96(8): 498-506).
Dilution of CTLs was carried out to make 0.3, 1 and 3 cells/well in 96 round-bottomed microtiter plates (Nalge Nunc International). The CTLs were co-cultured with two types of Mitomycin C-treated human B lymphoblastoid cell lines at 1×10^4 cells/well in a total of 150 micro-1/well AIM-V/5% AS medium with 30 ng/ml anti-CD3 antibody and 125 IU/ml IL-2. Ten days later, IL-2 was added to the medium at 50 micro-1/well to reach a final concentration of 125 IU/ml. On day 14, the CTL activity was tested, and the CTL clones were propagated using the same method as described above (Uchida N et al., Clin Cancer Res 2004, 10(24): 8577-86; Suda T et al., Cancer Sci 2006, 97(5): 411-9; Watanabe T et al., Cancer Sci 2005, 96(8): 498-506).
as §3

[3] = test system: COS7 cells transfected with both KOC1 and HLA-A*3303; assay: Specific CTL activity against target cells expressing KOC1 and HLA-A*3303; assay type: cell-based, African green monkey; settings: for specific CTL activity of CTL clones against target cells expressing KOC1 and HLA-A*3303: COS7 transfected with both full-length KOC1 and HLA-A*3303; for specific CTL activity of CTL clones against control cells: COS7 transfected with either full-length KOC1 or HLA-A*3303
Description: as §3
A cDNA encoding the open-reading frame of a target gene or HLA-A*3303 was amplified by PCR. The PCR-amplified product was cloned into an expression vector. Either or both of the target gene-expressing vector and the HLA-A*3303-expressing vector were transfected into […], which is a cell line negative for the target gene and HLA, using Lipofectamine 2000 (Invitrogen) following the manufacturer's recommended protocol. Two days after transfection, the transfected cells were harvested using versene (Invitrogen), and used as the target cell for CTL activity assay (5×10^4 cells/well).
The CTL lines and CTL clones established against KOC1-A33-9-485 (SEQ ID NO: 64) (a), KOC1-A33-9-286 (SEQ ID NO: 67) (b), and KOC1-A33-10-542 (SEQ ID NO: 77) (c) were investigated for their ability to recognize target cells expressing KOC1 and the HLA-A*3303 molecule. COS7 cells transfected with both full-length KOC1 and the HLA-A*3303 gene (a specific model of target cells expressing KOC1 and the HLA-A*3303 gene) were prepared as the target cell. COS7 cells transfected with either full-length KOC1 or HLA-A*3303 were prepared as the control.

peptide-pulsed C1R-A11 = assay: In vitro CTL induction, IFN-gamma ELISPOT assay (HLA-A*1101); assay type: cell-based, human; settings: CTLs induced with peptide-pulsed DCs from HLA-A*1101-positive volunteers; day 21; vs peptide-pulsed C1R-A11, compared with unpulsed control; listed as KOC1-A11-9-258
Description: as §1, with “(C1R-A11)” for “(C1R-A33)”, “HLA-A*1101” for “HLA-A*3303”
as §2, with “volunteers (HLA-A*1101-positive)” for “volunteers (HLA-A*3303-positive)”, “were inactivated,” for “were inactivated”, “peptide-pulsed C1R-A11” for “peptide-pulsed C1R-A33 cell”, “Y et” for “Y et.”
Specifically, peptide-pulsed C1R-A11 (1×10^4 cells/well) was prepared as the stimulator cell. The induced CTLs, i.e., CTL lines and CTL clones, were used as the responder cell. The IFN-gamma ELISPOT assay and IFN-gamma ELISA were performed according to the manufacturer's manual.

EVKLEAHIR (a peptide derived from KOC1) [SEQ ID NO: 64]
peptide-specific CTL activity (IFN-gamma production), ELISPOT (peptide-pulsed C1R-A33 [1]): potent IFN-gamma production | IFN-gamma production of CTL clones, ELISA (peptide-pulsed C1R-A33 [2]; listed as KOC1-A33-9-485): Potent IFN-gamma production | IFN-gamma production of CTL lines, ELISA (peptide-pulsed C1R-A33 [2]): potent IFN-gamma production | specific CTL activity of CTL clones against target cells expressing KOC1 and HLA-A*3303 ([3]; listed as KOC1-A33-9-485): specific CTL activity; also recorded: potent CTL activities | specific CTL activity of CTL clones against control cells ([3]; listed as KOC1-A33-9-485): a significant specific CTL activity was not shown; also recorded: a significant specific CTL activity was not detected

HFYACQVAQR (a peptide derived from KOC1) [SEQ ID NO: 77]
peptide-specific CTL activity (IFN-gamma production), ELISPOT (peptide-pulsed C1R-A33 [1]): potent IFN-gamma production | IFN-gamma production of CTL clones, ELISA (peptide-pulsed C1R-A33 [2]; listed as KOC1-A33-10-542): Potent IFN-gamma production | IFN-gamma production of CTL lines, ELISA (peptide-pulsed C1R-A33 [2]): potent IFN-gamma production | specific CTL activity of CTL clones against target cells expressing KOC1 and HLA-A*3303 ([3]; listed as KOC1-A33-10-542): specific CTL activity; also recorded: potent CTL activities | specific CTL activity of CTL clones against control cells ([3]; listed as KOC1-A33-10-542): a significant specific CTL activity was not shown; also recorded: a significant specific CTL activity was not detected

KSILEIMHK (a peptide derived from KOC1) [SEQ ID NO: 1]
peptide-specific CTL activity (IFN-gamma production), ELISPOT (peptide-pulsed C1R-A11): no specific IFN-gamma production; also recorded: specific IFN-gamma production was not observed

NFVGRLIGK (a peptide derived from KOC1) [SEQ ID NO: 67]
peptide-specific CTL activity (IFN-gamma production), ELISPOT (peptide-pulsed C1R-A33 [1]): potent IFN-gamma production | IFN-gamma production of CTL clones, ELISA (peptide-pulsed C1R-A33 [2]; listed as KOC1-A33-9-286): Potent IFN-gamma production | IFN-gamma production of CTL lines, ELISA (peptide-pulsed C1R-A33 [2]): potent IFN-gamma production | specific CTL activity of CTL clones against target cells expressing KOC1 and HLA-A*3303 ([3]; listed as KOC1-A33-9-286): specific CTL activity; also recorded: potent CTL activities | specific CTL activity of CTL clones against control cells ([3]; listed as KOC1-A33-9-286): a significant specific CTL activity was not shown; also recorded: a significant specific CTL activity was not detected
